Reference: paper PMC6060094, “Structural determinants of the catalytic mechanism of Plasmodium CCT, a key enzyme of malaria lipid biosynthesis” (Scientific Reports, 2018)

Key:
PfCCT(581–775) [1] = target: T1, PfCCT(581–775) (Plasmodium falciparum, UniProt P49587, DEL194-211); experiment: Saturation Transfer Difference NMR (STD-NMR) ligand binding; details: ligand 1 mM; 50 µM PfCCT(581-775), 283 K
T1 construct: The PfCCT(581–775) construct was obtained using previously described PfCCT(528–795); 6xHis (TEV-cleavable) (N, cleaved yes); made in house; host or cells: E. coli BL21 (DE3)
Protocol: In order to provide structural insights into the mechanism of action of PfCCT, we set out to crystallize the constitutively active C-terminal catalytic domain of PfCCT. Several constructs were tested and our attempts were successful only in case of PfCCT(581–775) that corresponds to the exact region visible in the crystal structure of RnCCT (PDB: 3HL4)[20] (Fig. 1a). […] (Table 1 and Supplementary Fig. S1). We further assessed the functionality of PfCCT(581–775) by characterizing its substrate and product binding ability. […] Saturation Transfer Difference Nuclear Magnetic Resonance (STD-NMR) experiments indicated STD signal of CTP, ChoP and CDPCho bound to PfCCT(581–775) at 1 mM, 4 mM and 1 mM concentrations, respectively (Supplementary Fig. S1). This latter result is consistent with previously observed unusually low ChoP affinity of PfCCT[16]. We concluded that PfCCT(581–775) is compatible with substrate and product recognition and may be amenable to structural studies provided that its compromised enzymatic function is taken into account in structure-based interpretations. It is likely that the drop of PfCCT(581–775) enzyme activity is due to the elimination of the C-terminal flanking part as similarly located truncations in the RnCCT catalytic domain also led to severe loss of activity[28],[29]. […]
Kinetic data are fitted with the Michaelis–Menten equation. […] Values of the measured kinetic and thermodynamic parameters and their errors […]
(black) of 50 µM PfCCT(581-775) in 20 mM Tris/HCl pH 7.5, 150 mM NaCl and 2 mM EtSH are shown in presence of c) 1 mM CTP, d) 4 mM ChoP and e) 1 mM CDPCho. […] The 1D 1H STD-NMR spectra were recorded on a Bruker 500 MHz instrument at 283 K with 256 scans and selective saturation of protein resonances at 0.922 ppm using a series of Gaussian shaped pulses (20 ms, 1 ms delay between the pulses). […] All 1D 1H NMR spectra were recorded […]

PfCCT(581–775) [2] = target: T1, PfCCT(581–775); experiment: Equilibrium ligand binding by isothermal titration calorimetry (ITC); details: 20 °C
Protocol: (§1) Calorimetric measurements were performed on an ITC 200 titration calorimeter (Malvern) at 20 °C. The protein samples were dialyzed against 20 mM HEPES/NaOH pH 7.5, 100 mM NaCl, including 0.5 mM Tris(2-carboxyethyl)phosphine (TCEP) as reducing agent. CTP and CDPCho were diluted from a concentrated stock into the dialysis buffer with subsequent pH adjustment. Concentration of the titrating nucleotide ligands were determined using molar extinction coefficients 9000 M^−1 cm^−1 at 271 nm for CTP and 5000 M^−1 cm^−1 at 260 nm for CDPCho[16]. In the experimental setup, the cell of the instrument was filled with protein and the syringe with the ligand. The titrations typically included 19 steps of injection with 2 μl of ligand per injection spaced 180 s apart from each other, with the injection syringe rotating at 750 r.p.m. The data were analyzed using MICROCAL ORIGIN software following the directions of the manufacturer. To account for dilution, the invariant integrated heat value of the last 3–5 data points was subtracted from all data points. The one set of independent sites binding model was applied to data for determination of thermodynamic parameters: dissociation constant (Kd), stoichiometry (N), enthalpy (ΔH) and entropy (ΔS). Due to the low apparent affinity, the N value was fixed to a constant value of 1 in CTP titrations to PfCCT(528–795) K663A according to the low c value ITC data analysis protocol[40],[41]. For CTP and CDPCho titrations of PfCCT(528–795) K663A, and CTP titrations of T761A and T762A variants of PfCCT(528-795), mean and SD from two independent experiments are provided, whereas for CDPCho titrations of PfCCT(581–775) and PfCCT(528-795) mean and SD from three independent experiments are provided. For PfCCT(528-795) (Y626F/Q636A), errors of model fit to data of a single ligand binding experiment are given.

[3] = target: PfCCT(528–795) Y626F/Q636A (Plasmodium falciparum, UniProt Q8IEE9, DEL720-737/Q636A/Y626F); experiment: as above; details: 20 °C, pH 7.5, single experiment, errors of model fit
Protocol: as §1

PfCCT(528–795) K663A = PfCCT(528–795) K663A (Plasmodium falciparum, UniProt Q8IEE9, DEL720-737/K663A); experiment: as above; details: 20 °C
Protocol: as §1

PfCCT(528–795) = target: T2, PfCCT(528–795) (Plasmodium falciparum, UniProt P49587, DEL194-211); experiment: as above; details: 20 °C
T2 construct: previously described PfCCT(528–795) lacking the lysine-rich Plasmodium specific loop (720–737); His-tag; made in house
Protocol: as §1

Sequence of PfCCT(528–795) Y626F/Q636A (Q8IEE9 528-795, stated change not applied): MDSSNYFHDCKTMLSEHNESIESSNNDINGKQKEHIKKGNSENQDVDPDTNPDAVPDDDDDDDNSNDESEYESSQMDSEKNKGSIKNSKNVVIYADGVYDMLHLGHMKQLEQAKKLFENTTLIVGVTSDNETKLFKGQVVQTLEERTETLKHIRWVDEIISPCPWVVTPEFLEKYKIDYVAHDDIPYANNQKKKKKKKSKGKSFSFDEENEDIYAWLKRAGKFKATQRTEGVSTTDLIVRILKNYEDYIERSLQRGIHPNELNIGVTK
Sequence of PfCCT(528–795) K663A (Q8IEE9 528-795, stated change not applied): as above

C[N+](C)(C)CCOP(=O)(O)OP(=O)([O-])OC[C@H]1O[C@@H](n2ccc(N)nc2=O)[C@H](O)[C@@H]1O [CDPCho, CDP-choline]
STD-NMR signal of ligand bound to enzyme (PfCCT(581–775) [1]): STD signal
ΔGCDP-Cho (PfCCT(581–775) [2]; pH 7.5): -5.8 ± 0.1 kcal/mol
ΔHCDP-Cho (PfCCT(581–775) [2]; pH 7.5): -10.5 ± 0.3 kcal/mol
−TΔSCDP-Cho (PfCCT(581–775) [2]; pH 7.5): 4.7 ± 0.4 kcal/mol
Kd (PfCCT(581–775) [2]; pH 7.5, read-out: Kd,CDP-Cho): 47 ± 5 µM
ΔGCDP-Cho [3]: -6.2 ± 0.1 kcal/mol
ΔHCDP-Cho [3]: -12.0 ± 0.2 kcal/mol
−TΔSCDP-Cho [3]: 5.8 ± 0.1 kcal/mol
Kd ([3]; read-out: Kd,CDP-Cho): 22.2 ± 0.2 µM
ΔGCDP-Cho (PfCCT(528–795) K663A; pH 7.5): -5.0 ± 1.4 kcal/mol
ΔHCDP-Cho (PfCCT(528–795) K663A; pH 7.5): -11.4 ± 1.5 kcal/mol
−TΔSCDP-Cho (PfCCT(528–795) K663A; pH 7.5): 6.5 ± 1.6 kcal/mol
Kd (PfCCT(528–795) K663A; pH 7.5, read-out: Kd,CDP-Cho): 210 ± 60 µM
ΔGCDP-Cho (PfCCT(528–795); pH 7.5): -6.0 ± 0.2 kcal/mol
ΔHCDP-Cho (PfCCT(528–795); pH 7.5): -16.1 ± 0.1 kcal/mol
−TΔSCDP-Cho (PfCCT(528–795); pH 7.5): 10.1 ± 0.1 kcal/mol
Kd (PfCCT(528–795); pH 7.5, read-out: Kd,CDP-Cho): 34 ± 1 µM
